Patent publication US10988523B2, “Modified lipidated Relaxin B chain peptides and their therapeutic use” (Sanofi, priority 2018, dated 2021)
*1 amine or outer side, *2 acyl side, *3 side chain or, on linkers, in order; H or OH if unused. Where a SMILES comes first, the peptide text is derived from it. Side-chain parts run from the residue outwards. [ ]: non-standard residue; d: D form. The star is where a group is joined. X17 = CCCCCCCCCCCCCCC(=O)N[C@@H](CCC(=O)N[C@@H](CCC(=O)N[C@@H](CCC(=O)NCCCOCCOCCOCCCNC(=O)CCC(=O)NCCCOCCOCCOCCCNC(=O)CCC(=O)NCCCOCCOCCOCCCN*)C(=O)O)C(=O)O)C(=O)O; PEG28 = NCCOCCOCCOCCOCCOCCOCCOCCOCCOCCOCCOCCOCCOCCOCCOCCOCCOCCOCCOCCOCCOCCOCCOCCOCCOCCOCCOCCOCCC(=O)O; PEG12 = NCCOCCOCCOCCOCCOCCOCCOCCOCCOCCOCCOCCOCCC(=O)O; γGlu = O=C(O)[C@H](CCC(=O)[*:2])N[*:1]; 1Nal = N[C@@H](Cc1cccc2ccccc12)C(=O)O; Stearoyl = CCCCCCCCCCCCCCCCCC(=O)*; Palmitoyl = CCCCCCCCCCCCCCCC(=O)*; Cit = NC(=O)NCCC[C@H](N)C(=O)O; Suc = O=C(CCC(=O)[*:2])[*:1]; αMeK = C[C@](N)(CCCCN)C(=O)O; Nle = CCCC[C@H](N)C(=O)O; AEEA = NCCOCCOCC(=O)O; Aib = CC(C)(N)C(=O)O

Biological target: T1, RXFP1 (Homo sapiens, UniProt Q9HBX9)
T1 construct: OVCAR5 cells expressing endogenous RXFP1; endogenous in cells; host or cells: OVCAR5 cells
T1 sequence (Q9HBX9 1-757): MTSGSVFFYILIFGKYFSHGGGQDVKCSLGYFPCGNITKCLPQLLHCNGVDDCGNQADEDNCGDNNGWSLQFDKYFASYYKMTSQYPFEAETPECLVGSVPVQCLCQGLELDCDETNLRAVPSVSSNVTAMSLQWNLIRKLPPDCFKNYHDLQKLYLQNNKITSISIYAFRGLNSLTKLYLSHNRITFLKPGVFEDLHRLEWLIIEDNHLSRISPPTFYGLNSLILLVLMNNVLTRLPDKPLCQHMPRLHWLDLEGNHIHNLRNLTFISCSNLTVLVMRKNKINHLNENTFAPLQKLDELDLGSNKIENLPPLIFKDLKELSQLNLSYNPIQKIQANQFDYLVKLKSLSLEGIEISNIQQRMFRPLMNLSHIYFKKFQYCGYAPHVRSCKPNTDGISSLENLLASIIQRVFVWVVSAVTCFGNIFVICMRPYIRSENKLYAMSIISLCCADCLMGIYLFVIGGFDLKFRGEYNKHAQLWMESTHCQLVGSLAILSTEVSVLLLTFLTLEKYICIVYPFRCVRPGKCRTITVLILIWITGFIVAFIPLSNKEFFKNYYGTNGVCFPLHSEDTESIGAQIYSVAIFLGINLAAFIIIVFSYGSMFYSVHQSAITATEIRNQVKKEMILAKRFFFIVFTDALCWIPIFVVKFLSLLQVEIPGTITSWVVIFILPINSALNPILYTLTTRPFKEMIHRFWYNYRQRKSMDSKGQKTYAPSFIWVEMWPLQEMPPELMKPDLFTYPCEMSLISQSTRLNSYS
Test: OVCAR5 cAMP assay (HTRF), RXFP1 agonist activity
Format: cell-based
Conditions: for Emax: OVCAR-5, maximal cAMP relative to H2-relaxin maximum (100%), read-out: EMax, OVCAR 5 cells (cAMP); for EC50: OVCAR5 cells, cAMP HTRF, read-out: EC50 (nM), OVCAR 5 cells (cAMP)
Method in brief: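 OVCAR5 cells (endogenous RXFP1) pretreated 40 min at 37° C with 1 mM IBMX, then exposed to peptides in serum-free medium for 30 min at 37° C. Lysate cAMP read by HTRF; EC50 from variable-slope sigmoidal fit; Emax as % of H2-relaxin maximal cAMP in same run.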

Row | Emax | EC50 | SMILES
1 | 99% |  | CCCCCCCCCCCCCCCCCC(=O)N[C@@H](CCC(=O)N[C@@H](CCC(=O)N[C@@H](CCC(=O)NCCCC[C@H](NC(=O)CCOCCOCCOCCOCCOCCOCCOCCOCCOCCOCCOCCOCCOCCOCCOCCOCCOCCOCCOCCOCCOCCOCCOCCOCCOCCOCCOCCOCCNC(=O)[C@H](CCCCN)NC(=O)[C@H](CCCCN)NC(=O)[C@H](CCCNC(=N)N)NC(=O)C(C)(C)NC(=O)[C@H](CO)NC(=O)[C@H](Cc1c[nH]c2ccccc12)NC(=O)[C@@H](NC(=O)[C@H](CO)NC(=O)[C@H](CCCC)NC(=O)CNC(=O)[C@H](CCC(=O)O)NC(=O)C(C)(C)NC(=O)C(C)(C)NC(=O)[C@@H](NC(=O)[C@H](CCCCNC(C)=O)NC(=O)[C@H](C)NC(=O)[C@H](CCCNC(=N)N)NC(=O)[C@@H](NC(=O)[C@H](CCCCN)NC(=O)[C@H](CCC(=O)O)NC(=O)[C@H](CCCNC(=N)N)NC(=O)CNC(=O)[C@H](CCC(=O)O)NC(=O)[C@H](CC(C)C)NC(C)=O)C(C)C)[C@@H](C)CC)[C@@H](C)O)C(N)=O)C(=O)O)C(=O)O)C(=O)O [compound 48] (Ac-LEGREKVRAK(Ac)I[Aib][Aib]EG[Nle]STWS[Aib]RKK[PEG28]K([γGlu-γGlu-γGlu-Stearoyl])-NH2)
2 | 75% |  | CCCCCCCCCCCCCCCCCC(=O)N[C@@H](CCC(=O)N[C@@H](CCC(=O)N[C@@H](CCC(=O)NCCOCCOCC(=O)NCCOCCOCC(=O)NCCOCCOCC(=O)NCCCC[C@H](NC(=O)[C@H](CCCCNC(C)=O)NC(=O)[C@H](CCCCN)NC(=O)[C@H](CCCNC(=N)N)NC(=O)C(C)(C)NC(=O)[C@H](CO)NC(=O)[C@H](Cc1cccc2ccccc12)NC(=O)[C@@H](NC(=O)[C@H](CO)NC(=O)[C@H](CCCC)NC(=O)CNC(=O)[C@H](CCC(=O)O)NC(=O)C(C)(C)NC(=O)C(C)(C)NC(=O)[C@@H](NC(=O)[C@H](CCCCNC(C)=O)NC(=O)C(C)(C)NC(=O)[C@H](CCCNC(=N)N)NC(=O)[C@@H](NC(=O)[C@H](CCCCN)NC(=O)[C@H](CCC(=O)O)NC(=O)[C@H](CCCNC(=N)N)NC(=O)CNC(=O)[C@H](CCC(=O)O)NC(=O)[C@H](CC(C)C)NC(C)=O)C(C)C)[C@@H](C)CC)[C@@H](C)O)C(N)=O)C(=O)O)C(=O)O)C(=O)O [compound 85] (Ac-LEGREKVR[Aib]K(Ac)I[Aib][Aib]EG[Nle]ST[1Nal]S[Aib]RKK(Ac)K([AEEA-AEEA-AEEA-γGlu-γGlu-γGlu-Stearoyl])-NH2)
3 | 87% |  | CCCCCCCCCCCCCCCCCC(=O)N[C@@H](CCC(=O)N[C@@H](CCC(=O)N[C@@H](CCC(=O)NCCOCCOCC(=O)NCCOCCOCC(=O)NCCOCCOCC(=O)NCCOCCOCC(=O)NCCCC[C@H](NC(=O)[C@H](CCCCNC(C)=O)NC(=O)[C@H](C)NC(=O)[C@H](CCCNC(N)=O)NC(=O)[C@](C)(CCCCN)NC(=O)[C@H](CO)NC(=O)[C@H](Cc1c[nH]c2ccccc12)NC(=O)[C@@H](NC(=O)[C@H](CO)NC(=O)[C@H](CCCC)NC(=O)CNC(=O)[C@H](CCC(=O)O)NC(=O)C(C)(C)NC(=O)C(C)(C)NC(=O)[C@@H](NC(=O)[C@H](CCCCNC(C)=O)NC(=O)[C@H](C)NC(=O)[C@H](CCCNC(=N)N)NC(=O)[C@@H](NC(=O)[C@H](CCCCN)NC(=O)[C@H](CCC(=O)O)NC(=O)[C@H](CCCNC(=N)N)NC(=O)CNC(=O)[C@H](CCC(=O)O)NC(=O)[C@H](CC(C)C)NC(C)=O)C(C)C)[C@@H](C)CC)[C@@H](C)O)C(N)=O)C(=O)O)C(=O)O)C(=O)O [compound 132] (Ac-LEGREKVRAK(Ac)I[Aib][Aib]EG[Nle]STWS[αMeK][Cit]AK(Ac)K([AEEA-AEEA-AEEA-AEEA-γGlu-γGlu-γGlu-Stearoyl])-NH2)
4 | 100% |  | CCCCCCCCCCCCCCC(=O)N[C@@H](CCC(=O)N[C@@H](CCC(=O)N[C@@H](CCC(=O)NCCCOCCOCCOCCCNC(=O)CCC(=O)NCCCOCCOCCOCCCNC(=O)CCC(=O)NCCCOCCOCCOCCCNC(=O)CCC(=O)NCCCC[C@H](NC(=O)[C@H](CCCCNC(C)=O)NC(=O)[C@H](C)NC(=O)[C@H](CCCNC(=N)N)NC(=O)[C@](C)(CCCCN)NC(=O)[C@H](CO)NC(=O)[C@H](Cc1ccccc1)NC(=O)[C@@H](NC(=O)[C@H](CO)NC(=O)[C@H](CCC(N)=O)NC(=O)CNC(=O)[C@H](CCC(=O)O)NC(=O)C(C)(C)NC(=O)C(C)(C)NC(=O)[C@@H](NC(=O)[C@H](CCCCNC(C)=O)NC(=O)[C@H](C)NC(=O)[C@H](CCCNC(=N)N)NC(=O)[C@@H](NC(=O)[C@H](CCCCN)NC(=O)[C@H](CCC(=O)O)NC(=O)[C@H](CCCNC(=N)N)NC(=O)CNC(=O)[C@H](CCC(=O)O)NC(=O)[C@H](CC(C)C)NC(C)=O)C(C)C)[C@@H](C)CC)[C@@H](C)O)C(N)=O)C(=O)O)C(=O)O)C(=O)O [compound 189] (Ac-LEGREKVRAK(Ac)I[Aib][Aib]EGQSTFS[αMeK]RAK(Ac)K([Suc-X17])-NH2)
5 | 95% |  | CCCCCCCCCCCCCCCCCC(=O)N[C@@H](CCC(=O)N[C@@H](CCC(=O)N[C@@H](CCC(=O)NCCCC[C@H](NC(=O)CCOCCOCCOCCOCCOCCOCCOCCOCCOCCOCCOCCOCCNC(=O)[C@H](CCCCN)NC(=O)[C@H](CCCNC(=N)N)NC(=O)C(C)(C)NC(=O)[C@H](CO)NC(=O)[C@H](Cc1c[nH]c2ccccc12)NC(=O)[C@@H](NC(=O)[C@H](CO)NC(=O)[C@H](CCCC)NC(=O)CNC(=O)[C@H](CCC(=O)O)NC(=O)C(C)(C)NC(=O)C(C)(C)NC(=O)[C@@H](NC(=O)[C@H](CCCCNC(C)=O)NC(=O)[C@H](C)NC(=O)[C@H](CCCNC(=N)N)NC(=O)[C@@H](NC(=O)[C@H](CCCCN)NC(=O)[C@H](CCC(=O)O)NC(=O)[C@H](CCCNC(=N)N)NC(=O)CNC(=O)[C@H](CCC(=O)O)NC(=O)[C@H](CC(C)C)NC(C)=O)C(C)C)[C@@H](C)CC)[C@@H](C)O)C(N)=O)C(=O)O)C(=O)O)C(=O)O [compound 34] (Ac-LEGREKVRAK(Ac)I[Aib][Aib]EG[Nle]STWS[Aib]RK[PEG12]K([γGlu-γGlu-γGlu-Stearoyl])-NH2)
6 | 92% | 0.3 nM | CCCCCCCCCCCCCCCC(=O)N[C@@H](CCC(=O)NCCCC[C@H](NC(=O)CC[C@H](NC(=O)CC[C@H](NC(=O)CC[C@H](NC(=O)COCCOCCNC(=O)COCCOCCNC(=O)COCCOCCNC(=O)COCCOCCNC(=O)[C@H](CCCCNC(C)=O)NC(=O)[C@H](C)NC(=O)[C@H](C)NC(=O)[C@](C)(CCCCN)NC(=O)[C@H](CO)NC(=O)[C@H](Cc1ccccc1)NC(=O)[C@@H](NC(=O)[C@H](CO)NC(=O)[C@H](CCCC)NC(=O)CNC(=O)[C@H](CCC(=O)O)NC(=O)C(C)(C)NC(=O)C(C)(C)NC(=O)[C@@H](NC(=O)[C@H](CCCCNC(C)=O)NC(=O)[C@H](C)NC(=O)[C@H](CCCNC(=N)N)NC(=O)[C@@H](NC(=O)[C@H](CCCCN)NC(=O)[C@H](CCC(=O)O)NC(=O)[C@H](CCCNC(=N)N)NC(=O)CNC(=O)[C@H](CCC(=O)O)NC(=O)[C@H](CC(C)C)NC(C)=O)C(C)C)[C@@H](C)CC)[C@@H](C)O)C(=O)O)C(=O)O)C(=O)O)C(N)=O)C(=O)O [compound 139] (Ac-LEGREKVRAK(Ac)I[Aib][Aib]EG[Nle]STFS[αMeK]AAK(Ac)[AEEA][AEEA][AEEA][AEEA][γGlu][γGlu][γGlu]K([γGlu-Palmitoyl])-NH2)
7 | 89% | 0.07 nM | CCCCCCCCCCCCCCCCCC(=O)N[C@@H](CCC(=O)N[C@@H](CCC(=O)N[C@@H](CCC(=O)NCCOCCOCC(=O)NCCOCCOCC(=O)NCCOCCOCC(=O)NCCOCCOCC(=O)NCCCC[C@H](NC(=O)[C@H](CCCCNC(C)=O)NC(=O)[C@H](CCCCN)NC(=O)[C@H](CCCNC(=N)N)NC(=O)C(C)(C)NC(=O)[C@H](CO)NC(=O)[C@H](Cc1c[nH]c2ccccc12)NC(=O)[C@@H](NC(=O)[C@H](CO)NC(=O)[C@H](CCCC)NC(=O)CNC(=O)[C@H](CCC(=O)O)NC(=O)C(C)(C)NC(=O)C(C)(C)NC(=O)[C@@H](NC(=O)[C@H](CCCCNC(C)=O)NC(=O)[C@H](C)NC(=O)[C@H](CCCNC(=N)N)NC(=O)[C@@H](NC(=O)[C@H](CCCCN)NC(=O)[C@H](CCC(=O)O)NC(=O)[C@H](CCCNC(=N)N)NC(=O)CNC(=O)[C@H](CCC(=O)O)NC(=O)[C@H](CC(C)C)NC(C)=O)C(C)C)[C@@H](C)CC)[C@@H](C)O)C(N)=O)C(=O)O)C(=O)O)C(=O)O [compound 90] (Ac-LEGREKVRAK(Ac)I[Aib][Aib]EG[Nle]STWS[Aib]RKK(Ac)K([AEEA-AEEA-AEEA-AEEA-γGlu-γGlu-γGlu-Stearoyl])-NH2)
